Results: patent US10660878B2, “Methods of treating dementia and pharmaceutical compositions thereof” (H. Lundbeck A/S, priority 2012, dated 2020)
“Also recorded” adds a separate entry of the source. Read-outs that look alike come from different tables or passages of the source. One block for each molecule: values may come before it.

What was measured:
5-HT6 receptor [1] = molecular target: T1, 5-HT6 receptor (Homo sapiens, UniProt P50406); test: PET 5-HT6 receptor occupancy after multiple oral doses, [^11C]LuPET radioligand (Part B); format: in vivo; set-up: from tissue; host or cells: brain of living healthy male subjects (putamen, caudate nucleus, ventral striatum), in vivo PET
Description: (§1) As the radioligand has not previously been dosed to humans it was initially evaluated in the human brain to identify an optimal method for quantification and validate the radioligand as a PET tracer (Part A).
Eight healthy male subjects (Age: 30.6±7.7 years; range: 22-44 years) participated in Part A, and sixteen healthy male subjects (Age: 32.3±7.6 years; range: 21-44 years) participated in Part B of this study.
(§2) PET studies were performed on the GE Advance Tomograph (GE Medical Systems, Waukesha, Wis., USA). Subjects had one venous catheter for the radioligand injection, and one arterial catheter to obtain arterial blood samples for the determination of radioactivity in plasma. Then, subjects were positioned in the scanner with the head restrained with a custom-made thermoplastic mask to reduce the head motion during PET data acquisition. Then, a 10 minute attenuation scan was performed using a rotating ^68Ge source for attenuation correction. Dynamic PET acquisition was then performed in a three-dimensional mode for 90 min following an intravenous bolus injection of [^11C]LuPET. A total of 30 PET frames were obtained (4×15, 4×30, 3×60, 2×120, 5×240, and 12×300 seconds). […] Selected samples taken at 0, 5, 10, 30, 45, 60, and 90 min were analyzed by HPLC for the presence of the radioligand and its radioactive metabolites as described elsewhere (Hilton et al., 2000).
Volumes of interest (VOIs): Cortical VOIs were automatically defined using Freesurfer software and combined into standard regions including: frontal (Fr), temporal (Tp), parietal (Pa), and occipital (Oc) cortices, fusiform gyms (Fs), cingulate (Cg), and insula (In). Subcortical regions were defined with FIRST software (Patenaude et al., 2011) and manually adjusted on individual MRIs. Subcortical regions included putamen (Pu), caudate nucleus (CN), ventral striatum (vS), globus pallidus (GP), thalamus (Th), hippocampus (Hp), and amygdala (Am). VOIs were transferred from MRI to PET spaces following MRI-to-PET coregistration parameters given by SPMS (Ashbumer J, Friston 2003; Macs et al., 1997) to obtain time-activity curves (TACs) of regions. A total of 25 regions per scan were employed for methodological evaluations (Part A) while occupancy calculation was limited to Pu, CN, and vS (Part B).
Derivation of PET outcome variables: Primary PET outcome variables are total distribution volume, VT and binding potential, BPND (=fND·Bavail/KD, where fND refers to the fraction of non-displaceable compartment, Bavail stands for the density of available (unoccupied) 5-HT6 receptors, and KD stands for the dissociation constant; Innis et al., 2007).
A set of standard plasma input methods were employed to identify the optimal method for derivation of regional distribution volume (VT) for [^11C]LuPET including, a one tissue compartmental model (OTCM) with three parameters (K1, and k2′; See Koeppe et al., 1991 for the definitions, and v0, tissue vascular volume), two tissue compartmental models with five parameters (K1, k2, k3, k4, and v0; See Innis et al., 2007 for the definitions), without and with constraining the K1-k2 ratio (non-displaceable distribution volume, VND (Abi-Dargham et al., 1994) to the cerebellum estimate (TTCM-UC and TTCM-C, respectively), and the plasma reference graphical analysis (PRGA; Logan et al., 1990). In TTCM-UC and TTCM-C, BPND was given as the k3-k4 ratio.
In addition, tissue reference methods, namely the multilinear reference tissue method with 2 parameters (MRTM2; Ichise et al., 2002) and reference tissue graphical analysis (RTGA; Logan et al., 1996) were applied.
Akaike information criteria (AIC; Akaike 1974; Burnham and Anderson 2004) was used to examine goodness of fit for compartmental models and for the examination of occupancy-PK relationships using Equation 3. Results

[2] = Phase I PK study in the elderly and AD study 12936A pharmacokinetics; format: in vivo, human; conditions: for half-life: human, plasma, read-out: elimination half life (converted)
Description: In total, the dataset used in the popPK model consisted of 265 patients. The doses administered, single or multiple, were in the range of 9.0-300 mg.

[3] = Plasma concentration of Compound I (PK) in PET study Part B; format: in vivo, human; conditions: P2 scans, post-dose duration 10-51 hours
Description: Dosing schemes include 5 mg (5Q; Part B4) once daily or QD, 30 mg QD (30Q; Part B3), 30 mg b.i.d. (30B; Part B2), and 60 mg b.i.d (60B; Part B1). […] Model 2 was supported over Model 1 in Pu, CN, and vS by Akaike information criterion (AIC; The smaller the AIC value the better the fit) (Akaike 1974) and F-test comparing residual sums of squares (RSS) of the two models (Table 1).

5-HT6 receptor [4] = molecular target: T1, 5-HT6 receptor; test: PK/PD Emax model of 5-HT6 occupancy fitted to PET data; format: in vivo; set-up: from tissue; host or cells: brain of living healthy male subjects (putamen, caudate nucleus, ventral striatum), in vivo PET; conditions: caudate nucleus region; non-linear mixed effect modelling
Description: In total three PET scans were performed per subject, the first at baseline, the second around tmax on last day of dosing and the last in the interval 10-51 hours post dose on the last day of dosing.
In order to allow for estimation of the inter-subject variability in the occupancy, non-linear mixed effect modelling was performed where the inter-subject variability was modelled as an exponential term on EC50.

[5] = tested on: patients with schizophrenia; test: Study 12450A, adjunctive treatment to risperidone in schizophrenia; format: in vivo, human; conditions: 120 mg/day BID
Description: Overall improvement in schizophrenia symptoms was assessed by using the Positive and Negative Syndrome Scale (PANSS) total score.
(§3) The AD study cited in the Background section is referred to in this application as study 12936A. The schizophrenia study cited in the Background section is referred to in this application as study 12450A.

[6] = tested on: patients with Alzheimer's disease; test: Study 12936A, adjunctive treatment to donepezil in Alzheimer's disease; format: in vivo, human; conditions: 90 mg daily (3×30 mg) plus 10 mg/day of donepezil
Source text: In 2012, it was reported that a randomized, double blind, placebo controlled trial conducted in Europe, Canada and Australia met its primary endpoint in the treatment of AD.
An issue for that dose selection was to ensure that the maximum exposure level fell under the maximum exposure limit which had been established from non-clinical toxicology studies. Accordingly, a fixed dose of three times in the study was introduced.
as §3

[7] = Evaluation of [^11C]LuPET as PET tracer in the human brain; format: in vivo
Description: as §1
as §2, with “2000). […]” for “2000).”

5-HT6 receptor [8] = molecular target: T1, 5-HT6 receptor; test: Displacement of [^11C]LuPET binding by olanzapine, PET (Part A); conditions: one dose of 10 mg, scan 5 hours after dose; across brain regions
Source text: In Part A, baseline scans were repeated on the same day (n=1) or separate days (n=7) ranging from 1 to 18 days apart to test reproducibility of PET outcome variables.
[formula] where superscripts indicate BPND of baseline (B) and post-dose (D), respectively.

[9] = Caudate nucleus (CN), PRGA, 3H + P2 pooled
[10] = Caudate nucleus (CN), PRGA, 3H scans
[11] = Caudate nucleus (CN), PRGA, P2 scans
[12] = Caudate nucleus (CN), RTGA, 3H + P2 pooled
[13] = Caudate nucleus (CN), RTGA, 3H scans
[14] = Caudate nucleus (CN), RTGA, P2 scans
[15] = Putamen (Pu), PRGA, 3H + P2 pooled
[16] = Ventral striatum (vS), PRGA, 3H + P2 pooled
[17] = Ventral striatum (vS), PRGA, 3H scans
[18] = Ventral striatum (vS), PRGA, P2 scans

T1 sequence (P50406 whole entry): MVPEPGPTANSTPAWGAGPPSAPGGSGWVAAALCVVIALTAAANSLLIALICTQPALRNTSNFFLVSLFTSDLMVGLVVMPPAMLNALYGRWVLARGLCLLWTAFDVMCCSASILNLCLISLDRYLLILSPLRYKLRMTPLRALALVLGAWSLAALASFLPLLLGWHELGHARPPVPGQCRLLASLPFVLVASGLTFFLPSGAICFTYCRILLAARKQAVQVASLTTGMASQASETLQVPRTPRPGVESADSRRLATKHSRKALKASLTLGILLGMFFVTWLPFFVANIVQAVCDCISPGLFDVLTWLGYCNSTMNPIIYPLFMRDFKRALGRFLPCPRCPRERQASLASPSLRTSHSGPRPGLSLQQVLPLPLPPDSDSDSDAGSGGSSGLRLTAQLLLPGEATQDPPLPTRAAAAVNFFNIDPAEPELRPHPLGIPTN

Structure (SMILES): Fc1ccc2c(CCNCc3cccc(OCC(F)(F)C(F)F)c3)c[nH]c2c1 [Compound I, N-[2-(6-fluoro-1H-indol-3-yl)ethyl]-3-(2,2,3,3-tetrafluoropropoxy)benzylamine]
receptor occupancy at 30 mg (5-HT6 receptor [1]; 30 mg BID, at Cmax): > 85%
receptor occupancy at 30 mg (5-HT6 receptor [1]; 30 mg QD, at Cmax): ~80%
receptor occupancy at 60 mg (5-HT6 receptor [1]; 60 mg BID, at Cmax): > 90%
PK values predicted to generate 80% occupancy (5-HT6 receptor [1]; CN and vS by PRGA): about 120 ng/mL
PK values predicted to generate 80% occupancy (5-HT6 receptor [1]; CN by RTGA): about 100 ng/mL
80% RO (PK predicted to exert 80% occupancy) (5-HT6 receptor [1]; [9]): 51.1 ng/mL
Omax (5-HT6 receptor [1]; [9]): 91.3%
80% RO (PK predicted to exert 80% occupancy) (5-HT6 receptor [1]; [10]): 50.1 ng/mL
Omax (5-HT6 receptor [1]; [10]): 90.3%
80% RO (PK predicted to exert 80% occupancy) (5-HT6 receptor [1]; [11]): 48.0 ng/mL
Omax (5-HT6 receptor [1]; [11]): 93.9%
80% RO (PK predicted to exert 80% occupancy) (5-HT6 receptor [1]; [12]): 108.4 ng/mL
Omax (5-HT6 receptor [1]; [12]): 85.7%
80% RO (PK predicted to exert 80% occupancy) (5-HT6 receptor [1]; [13]): 102.8 ng/mL
Omax (5-HT6 receptor [1]; [13]): 85.2%
80% RO (PK predicted to exert 80% occupancy) (5-HT6 receptor [1]; [14]): 101.5 ng/mL
Omax (5-HT6 receptor [1]; [14]): 87.1%
PK values predicted to generate 80% occupancy (5-HT6 receptor [1]; Pu by PRGA): about 50 ng/mL
80% RO (PK predicted to exert 80% occupancy) (5-HT6 receptor [1]; [15]): 131.7 ng/mL
Omax (5-HT6 receptor [1]; [15]): 83.2%
80% RO (PK predicted to exert 80% occupancy) (5-HT6 receptor [1]; Putamen (Pu), PRGA, 3H scans): 137.8 ng/mL
Omax (5-HT6 receptor [1]; Putamen (Pu), PRGA, 3H scans): 82.8%
80% RO (PK predicted to exert 80% occupancy) (5-HT6 receptor [1]; Putamen (Pu), PRGA, P2 scans): 116.7 ng/mL
Omax (5-HT6 receptor [1]; Putamen (Pu), PRGA, P2 scans): 83.8%
Omax (5-HT6 receptor [1]; Putamen (Pu), RTGA, 3H + P2 pooled): 77.3%
Omax (5-HT6 receptor [1]; Putamen (Pu), RTGA, 3H scans): 7.5%
Omax (5-HT6 receptor [1]; Putamen (Pu), RTGA, P2 scans): 76.6%
80% RO (PK predicted to exert 80% occupancy) (5-HT6 receptor [1]; [16]): 121.0 ng/mL
Omax (5-HT6 receptor [1]; [16]): 86.0%
80% RO (PK predicted to exert 80% occupancy) (5-HT6 receptor [1]; [17]): 66.5 ng/mL
Omax (5-HT6 receptor [1]; [17]): 85.5%
80% RO (PK predicted to exert 80% occupancy) (5-HT6 receptor [1]; [18]): 133.5 ng/mL
Omax (5-HT6 receptor [1]; [18]): 89.7%
Omax (5-HT6 receptor [1]; Ventral striatum (vS), RTGA, 3H + P2 pooled): 76.5%
Omax (5-HT6 receptor [1]; Ventral striatum (vS), RTGA, 3H scans): 78.2%
Omax (5-HT6 receptor [1]; Ventral striatum (vS), RTGA, P2 scans): 72.1%
5-HT6 receptor occupancy 24 hours post dose (5-HT6 receptor [1]; after multiple dosages, 24 hours post dose vs Cmax): only decreased slightly; also recorded: maintained
Omax (5-HT6 receptor [1]; oral administration, overall study estimate based on Pu and CN): about 90%
clearance ([2]; elderly compared to younger subjects): reduced
half-life ([2]; elderly population): ~19 h
half-life ([2]; young healthy subjects): ~12 h
PK range (plasma concentration) [3]: 0.54 to 204 ng/mL
Emax (maximal occupancy) (5-HT6 receptor [4]): 91%
PANSS total score vs placebo [5]: did not offer any treatment advantage over placebo
overall neurocognitive performance (BACS composite Z-score, PANSS cognitive subscale scores) vs placebo [5]: did not appear to be any treatment advantage over placebo
secondary endpoints (global impression, daily living activities) vs donepezil treated patients [6]: positive results
cognitive function (ADAS-cog) vs placebo plus donepezil ([6]; 278 patients): significantly improved

k2 (brain-to-blood clearance rate constant) ([7]; cerebellum (Cb), mean across baseline scans, TTCM-UC): 0.076 min⁻¹
distribution volume VT ([7]; striatum target regions): ~10 mL/mL
Structure (SMILES): [11CH3]N1CCN(c2cccc3cc(S(=O)(=O)c4ccccc4)cnc23)CC1 [[^11C]LuPET]

Structure (SMILES): Cc1cc2c(s1)Nc1ccccc1N=C2N1CCN(C)CC1 [olanzapine]
displacement of binding of [^11C]LuPET (5-HT6 receptor [8]): about 80%
